Columns and labels:
Assay in all cases: Test C preemergence
Format in all cases: in vivo
[1] = test system: foxtail, giant (giant foxtail, Setaria faberii); conditions: for Plant response rating (scale of 0 to 100), Foxtail, Giant: 0 is no effect, 100 is complete control; for Plant response rating, Foxtail, Giant: scale 0 to 100, 0 no effect, 100 complete control
Summary of the method: (§1)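 Assessment: visual, 13–15 d after treatment, 0 (no effect) to 100 (complete control) relative to controls. Treatment: preemergence to seeds in loam-sand soil, or postemergence to 1- to 4-leaf plants in peat-based medium. Formulation: non-phytotoxic solvent mixture with surfactant.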

[2] = test system: pigweed (Amaranthus retroflexus); conditions: for Plant response rating (scale of 0 to 100), Pigweed: 0 is no effect, 100 is complete control; for Plant response rating, Pigweed: scale 0 to 100, 0 no effect, 100 complete control
Summary of the method: as §1

[3] = test system: ryegrass, Italian (Italian ryegrass, Lolium multiflorum); conditions: for Plant response rating (scale of 0 to 100), Ryegrass, Italian: 0 is no effect, 100 is complete control; for Plant response rating, Ryegrass, Italian: scale 0 to 100, 0 no effect, 100 complete control
Summary of the method: as §1

[4] = test system: ragweed (common ragweed, Ambrosia elatior); conditions: for Plant response rating (scale of 0 to 100), Ragweed: 0 is no effect, 100 is complete control; for Plant response rating, Ragweed: scale 0 to 100, 0 no effect, 100 complete control
Summary of the method: as §1

[5] = test system: Galium (catchweed bedstraw, Galium aparine); conditions: for Plant response rating (scale of 0 to 100), Galium: 0 is no effect, 100 is complete control; for Plant response rating, Galium: scale 0 to 100, 0 no effect, 100 complete control
Summary of the method: as §1

[6] = test system: barnyardgrass (Echinochloa crus-galli); conditions: for Plant response rating (scale of 0 to 100), Barnyardgrass: 0 is no effect, 100 is complete control; for Plant response rating, Barnyardgrass: scale 0 to 100, 0 no effect, 100 complete control
Summary of the method: as §1

[7] = test system: waterhemp (common waterhemp, Amaranthus rudis); conditions: for Plant response rating (scale of 0 to 100), Waterhemp: 0 is no effect, 100 is complete control; for Plant response rating, Waterhemp: scale 0 to 100, 0 no effect, 100 complete control
Summary of the method: as §1

[8] = test system: nutsedge, yellow (yellow nutsedge, Cyperus esculentus); conditions: for Plant response rating (scale of 0 to 100), Nutsedge, Yellow: 0 is no effect, 100 is complete control; for Plant response rating, Nutsedge, Yellow: scale 0 to 100, 0 no effect, 100 complete control
Summary of the method: as §1

[9] = test system: crabgrass, large (large crabgrass, Digitaria sanguinalis); conditions: for Plant response rating (scale of 0 to 100), Crabgrass, Large: 0 is no effect, 100 is complete control; for Plant response rating, Crabgrass, Large: scale 0 to 100, 0 no effect, 100 complete control
Summary of the method: as §1

[10] = test system: velvetleaf (Abutilon theophrasti); conditions: for Plant response rating (scale of 0 to 100), Velvetleaf: 0 is no effect, 100 is complete control; for Plant response rating, Velvetleaf: scale 0 to 100, 0 no effect, 100 complete control
Summary of the method: as §1

[11] = test system: morningglory (Ipomoea coccinea); conditions: for Plant response rating (scale of 0 to 100), Morningglory: 0 is no effect, 100 is complete control; for Plant response rating, Morningglory: scale 0 to 100, 0 no effect, 100 complete control
Summary of the method: as §1

[12] = test system: oilseed rape (Brassica napus); conditions: for Plant response rating (scale of 0 to 100), Oilseed Rape: 0 is no effect, 100 is complete control; for Plant response rating, Oilseed Rape: scale 0 to 100, 0 no effect, 100 complete control
Summary of the method: as §1

[13] = test system: blackgrass (Alopecurus myosuroides); conditions: for Plant response rating (scale of 0 to 100), Blackgrass: 0 is no effect, 100 is complete control; for Plant response rating, Blackgrass: scale 0 to 100, 0 no effect, 100 complete control
Summary of the method: as §1

[14] = test system: lambsquarters (Chenopodium album); conditions: for Plant response rating (scale of 0 to 100), Lambsquarters: 0 is no effect, 100 is complete control; for Plant response rating, Lambsquarters: scale 0 to 100, 0 no effect, 100 complete control
Summary of the method: as §1

[15] = test system: wheat (winter wheat, Triticum aestivum); conditions: for Plant response rating (scale of 0 to 100), Wheat: 0 is no effect, 100 is complete control; for Plant response rating, Wheat: scale 0 to 100, 0 no effect, 100 complete control
Summary of the method: as §1

corn (Zea mays) = conditions: for Plant response rating (scale of 0 to 100), Corn: 0 is no effect, 100 is complete control; for Plant response rating, Corn: scale 0 to 100, 0 no effect, 100 complete control
Summary of the method: as §1

CN1CC(c2ccc(C(C)(F)F)cc2)C(C(=O)Nc2ccccc2F)C1=O (stereo not shown) [Compound 691]
60: Plant response rating, Wheat ([15]; 62 g ai/ha)
25: Plant response rating (scale of 0 to 100), Velvetleaf ([10]; 31 g ai/ha)
35: Plant response rating (scale of 0 to 100), Pigweed ([2]; 16 g ai/ha) | Plant response rating, Ryegrass, Italian ([3]; 62 g ai/ha) | Plant response rating (scale of 0 to 100), Oilseed Rape ([12]; 31 g ai/ha)
90: Plant response rating, Pigweed ([2]; 62 g ai/ha) | Plant response rating (scale of 0 to 100), Barnyardgrass ([6]; 16 g ai/ha) | Plant response rating (scale of 0 to 100), Barnyardgrass ([6]; 31 g ai/ha) | Plant response rating, Lambsquarters ([14]; 62 g ai/ha) | Plant response rating, Lambsquarters ([14]; 125 g ai/ha)
0: Plant response rating (scale of 0 to 100), Ryegrass, Italian ([3]; 16 g ai/ha) | Plant response rating (scale of 0 to 100), Ryegrass, Italian ([3]; 31 g ai/ha) | Plant response rating (scale of 0 to 100), Ragweed ([4]; 16 g ai/ha) | Plant response rating (scale of 0 to 100), Nutsedge, Yellow ([8]; 16 g ai/ha) | Plant response rating (scale of 0 to 100), Nutsedge, Yellow ([8]; 31 g ai/ha) | Plant response rating, Nutsedge, Yellow ([8]; 62 g ai/ha) | Plant response rating (scale of 0 to 100), Morningglory ([11]; 16 g ai/ha) | Plant response rating (scale of 0 to 100), Oilseed Rape ([12]; 16 g ai/ha) | Plant response rating (scale of 0 to 100), Blackgrass ([13]; 16 g ai/ha) | Plant response rating (scale of 0 to 100), Blackgrass ([13]; 31 g ai/ha) | Plant response rating (scale of 0 to 100), Corn (corn (Zea mays); 16 g ai/ha)
20: Plant response rating, Nutsedge, Yellow ([8]; 125 g ai/ha) | Plant response rating, Morningglory ([11]; 62 g ai/ha)
40: Plant response rating, Velvetleaf ([10]; 62 g ai/ha) | Plant response rating, Morningglory ([11]; 125 g ai/ha) | Plant response rating (scale of 0 to 100), Corn (corn (Zea mays); 31 g ai/ha)
65: Plant response rating, Corn (corn (Zea mays); 125 g ai/ha)
30: Plant response rating (scale of 0 to 100), Morningglory ([11]; 31 g ai/ha)
10: Plant response rating (scale of 0 to 100), Velvetleaf ([10]; 16 g ai/ha) | Plant response rating (scale of 0 to 100), Wheat ([15]; 16 g ai/ha) | Plant response rating (scale of 0 to 100), Wheat ([15]; 31 g ai/ha)
75: Plant response rating, Blackgrass ([13]; 125 g ai/ha)
85: Plant response rating (scale of 0 to 100), Pigweed ([2]; 31 g ai/ha) | Plant response rating, Ragweed ([4]; 125 g ai/ha) | Plant response rating (scale of 0 to 100), Waterhemp ([7]; 16 g ai/ha) | Plant response rating (scale of 0 to 100), Waterhemp ([7]; 31 g ai/ha) | Plant response rating (scale of 0 to 100), Lambsquarters ([14]; 31 g ai/ha)
100: Plant response rating, Pigweed ([2]; 125 g ai/ha) | Plant response rating (scale of 0 to 100), Ragweed ([4]; 31 g ai/ha) | Plant response rating (scale of 0 to 100), Galium ([5]; 16 g ai/ha) | Plant response rating (scale of 0 to 100), Galium ([5]; 31 g ai/ha) | Plant response rating, Barnyardgrass ([6]; 125 g ai/ha) | Plant response rating (scale of 0 to 100), Crabgrass, Large ([9]; 31 g ai/ha) | Plant response rating, Crabgrass, Large ([9]; 62 g ai/ha) | Plant response rating, Crabgrass, Large ([9]; 125 g ai/ha)
5: Plant response rating, Blackgrass ([13]; 62 g ai/ha)
98: Plant response rating, Foxtail, Giant ([1]; 62 g ai/ha) | Plant response rating, Foxtail, Giant ([1]; 125 g ai/ha) | Plant response rating, Barnyardgrass ([6]; 62 g ai/ha) | Plant response rating (scale of 0 to 100), Crabgrass, Large ([9]; 16 g ai/ha)
70: Plant response rating, Ragweed ([4]; 62 g ai/ha) | Plant response rating (scale of 0 to 100), Lambsquarters ([14]; 16 g ai/ha)
55: Plant response rating, Ryegrass, Italian ([3]; 125 g ai/ha) | Plant response rating, Corn (corn (Zea mays); 62 g ai/ha)
50: Plant response rating, Velvetleaf ([10]; 125 g ai/ha) | Plant response rating, Oilseed Rape ([12]; 62 g ai/ha)
80: Plant response rating, Oilseed Rape ([12]; 125 g ai/ha) | Plant response rating, Wheat ([15]; 125 g ai/ha)
95: Plant response rating (scale of 0 to 100), Foxtail, Giant ([1]; 16 g ai/ha) | Plant response rating (scale of 0 to 100), Foxtail, Giant ([1]; 31 g ai/ha) | Plant response rating, Galium ([5]; 62 g ai/ha) | Plant response rating, Galium ([5]; 125 g ai/ha) | Plant response rating, Waterhemp ([7]; 62 g ai/ha) | Plant response rating, Waterhemp ([7]; 125 g ai/ha)
